We go through 17 molecules from patent US20240342186A1, “PYRIDINE DERIVATIVES WITH N-LINKED CYCLIC SUBSTITUENTS AS cGAS INHIBITORS” (Boehringer Ingelheim International GmbH, priority 2021, published 2024).

In one assay the target is cGAS (Homo sapiens (Human), UniProt Q8N884). The assay is described as follows: Human cGAS enzyme assay (hcGAS IC50, in vitro), cGAMP formation by RapidFire MS.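 Further: enzyme activated by 45 bp dsDNA with GTP and ATP (30 µM each), 60 min compound pre-incubation then 90 min reaction, cGAMP relative to cyclic-di-GMP internal standard, 8-point dilutions up to 10 µM.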 In kind it is biochemical. As to conditions: biochemical (in vitro) cGAS inhibition.
Assay [1] deals with cellular cGAS activity in baculovirus-stimulated THP1-Dual cells (IRF dependent Lucia luciferase reporter). The assay is described as follows: Human cGAS cell assay: inhibition of IFN induction in virus-stimulated THP1 cells (THP1(vir) IC50). Type of assay: cell-based. As to conditions: Homo sapiens, THP1-Dual. The method, boiled down:
(§1)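 THP1-Dual cells with IRF-dependent Lucia luciferase reporter, stimulated by empty baculovirus (dsDNA delivery activating cGAS) or, for the counter assay, directly by cGAMP. 5000 cells/well, 8 concentrations from 10 μM top, 1% DMSO, 18 h at 37 °C; luminescence read, IC50 by 4-parameter logistic fit versus unstimulated low control.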

Assay [2] deals with cGAMP-stimulated THP1-Dual cells (pathway directly downstream of cGAS). The assay is described as follows: cGAMP stimulated counter cell assay: inhibition of IFN induction in cGAMP-stimulated THP1 cells (THP1(cGAMP) IC50). In kind it is cell-based, human. The conditions noted are these: for IC50: read-out: THP1(cGAMP) IC50 (converted); for Ratio THP1(cGAMP) IC50 / THP1(vir) IC50: selectivity for cGAS inhibition. The method in brief: as §1

Assay [3] concerns cellular cGAS activity in dsDNA-stimulated human whole blood. In words: Human whole blood assay (hWB IC50): IFNα2α production after dsDNA transfection. Type of assay: cell-based. The conditions noted are these: inhibition of IFN induction in dsDNA-stimulated human whole blood. The method in brief: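 Citrated blood from healthy donors preincubated 60 min at room temperature with compound (top 10 µM, ~1:5 steps, 0.1% DMSO), then transfected with dsDNA/Fugene and incubated 22 h at 37 °C. Plasma IFNα2α measured by MSD immunoassay; IC50 from 4-parameter fit of % control (stimulated vs unstimulated).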

The mark [4] stands for this setting: inhibition of IFN induction in virus-stimulated THP1 cells, read-out: THP1(vir) IC50.
The mark [5] stands for this setting: Homo sapiens, THP1-Dual, inhibition of IFN induction in cGAMP-stimulated THP1 cells.

pIC50: −log10 of the molar value. Where two headings read alike, the source gives them in different places. A value given as a limit tells only on which side of the number the result lay.

Sequence of cGAS (Q8N884 whole entry): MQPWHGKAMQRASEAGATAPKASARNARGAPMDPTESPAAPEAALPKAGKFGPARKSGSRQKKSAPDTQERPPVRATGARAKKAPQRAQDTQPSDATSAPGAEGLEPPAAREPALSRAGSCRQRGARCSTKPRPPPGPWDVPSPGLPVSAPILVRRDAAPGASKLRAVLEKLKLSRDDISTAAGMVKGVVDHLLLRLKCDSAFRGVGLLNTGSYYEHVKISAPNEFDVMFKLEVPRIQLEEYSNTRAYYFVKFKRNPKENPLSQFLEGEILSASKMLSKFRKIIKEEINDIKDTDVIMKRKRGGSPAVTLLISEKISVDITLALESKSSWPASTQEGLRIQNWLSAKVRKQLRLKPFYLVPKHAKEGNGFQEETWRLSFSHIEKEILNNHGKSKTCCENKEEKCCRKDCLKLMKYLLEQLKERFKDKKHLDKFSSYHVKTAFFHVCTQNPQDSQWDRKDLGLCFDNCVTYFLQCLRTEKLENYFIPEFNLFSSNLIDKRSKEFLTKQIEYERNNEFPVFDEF

The pIC50 is the negative decadic logarithm of the IC50, by convention in mol/L. For orientation: IC50 means the concentration that inhibits the measured activity by half. As for `C[C@@H]1N(c2cc(-c3ccc(C#N)nc3)cnc2O[C@H]2C[C@@H](C(=O)O)N(c3nc(C(F)(F)F)nc4c3oc3ccccc34)C2)CCOC12COC2` [Example 3.23], the pIC50 against cGAS was 8.10; in assay [1] (setting [4]), 8.00; in assay [3], 7.15. Also, in assay [2] (setting [5]), the concentration for half-maximal inhibition (IC50) is 10000 nM. Further, in assay [2], the “Ratio THP1(cGAMP) IC50 / THP1(vir) IC50” value is on record as 1029.

Turning to `C[C@@H]1N(c2cc(-c3cccc(C(N)=O)c3)cnc2O[C@H]2C[C@@H](C(=O)O)N(c3nc(C(F)F)nc4c3oc3ccccc34)C2)CCOC12COC2` [Example 3.24], the pIC50 against cGAS was 8.22; in assay [1] (setting [4]), 7.24; in assay [3], 6.49. In assay [2] (setting [5]), the IC50 is 19200 nM. For the same molecule, in assay [2], the “Ratio THP1(cGAMP) IC50 / THP1(vir) IC50” value is recorded as 336.

As to `COc1cc(-c2cnc(O[C@H]3C[C@@H](C(=O)O)N(c4nc(C(F)(F)F)nc5c4oc4ccccc45)C3)c(N3CCOC4(COC4)[C@@H]3C)c2)c(F)cn1` [Example 3.25], the pIC50 on cGAS is 8.05; in assay [1] (setting [4]), 7.72; in assay [3] it was 7.02. Further, in assay [2] (setting [5]), the IC50 is 9710 nM. In addition, in assay [2], the “Ratio THP1(cGAMP) IC50 / THP1(vir) IC50” value worked out at 502.

Take `C[C@@H]1N(c2cc(-c3cncc(Cl)c3)cnc2O[C@H]2C[C@@H](C(=O)O)N(c3nc(C(F)(F)F)nc4c3oc3ccccc34)C2)CCOC12COC2` [Example 3.26]: the pIC50 was 7.96 against cGAS, 7.32 in assay [1] (setting [4]) and 5.86 in assay [3]. Besides, the IC50 in assay [2] (setting [5]) was 9240 nM. Moreover, the “Ratio THP1(cGAMP) IC50 / THP1(vir) IC50” value in assay [2] is on record as 193.

As to `Cc1noc(C)c1-c1cnc(O[C@H]2C[C@@H](C(=O)O)N(c3nc(C(F)(F)F)nc4c3oc3ccccc34)C2)c(N2CCOC3(COC3)[C@@H]2C)c1` [Example 3.27], the values for the pIC50 (against cGAS; in assay [1] (setting [4]); in assay [3]) were 7.68, 6.49 and 5.73, respectively. Further, the IC50 in assay [2] (setting [5]) is 12500 nM. The “Ratio THP1(cGAMP) IC50 / THP1(vir) IC50” value in assay [2] was 38.

In the case of `C[C@@H]1N(c2cc(-c3ccc(OC4CCOCC4)nc3)cnc2O[C@H]2C[C@@H](C(=O)O)N(c3nc(C(F)(F)F)nc4c3oc3ccccc34)C2)CCOC12COC2` [Example 3.29], the values for the pIC50 (at cGAS; in assay [1] (setting [4]); in assay [3]) were 7.18, 6.23 and 5.80, respectively. Also, in assay [2] (setting [5]), the concentration for half-maximal inhibition (IC50) is 6540 nM. The “Ratio THP1(cGAMP) IC50 / THP1(vir) IC50” value in assay [2] came out at 11.

Regarding `C[C@@H]1N(c2cc(-c3cnn(C(F)(F)F)c3)cnc2O[C@H]2C[C@@H](C(=O)O)N(c3nc(C(F)(F)F)nc4c3oc3ccccc34)C2)CCOC12COC2` [Example 3.30], the pIC50 against cGAS was 7.59; in assay [1] (setting [4]), 7.82; in assay [3], 7.08. Also, the half-inhibitory concentration (IC50) in assay [2] (setting [5]) is 12600 nM. For the same molecule, in assay [2], the “Ratio THP1(cGAMP) IC50 / THP1(vir) IC50” value came to 829.

Turning to `C[C@@H]1N(c2cc(-c3cnn(C(F)F)c3)cnc2O[C@H]2C[C@@H](C(=O)O)N(c3nc(C(F)(F)F)nc4c3oc3ccccc34)C2)CCOC12COC2` [Example 3.31], the results for the negative-log IC50 (pIC50) (at cGAS; in assay [1] (setting [4]); in assay [3]) were 7.96, 8.52 and 7.55, respectively. Further, in assay [2] (setting [5]), the IC50 is 10900 nM. Also, the “Ratio THP1(cGAMP) IC50 / THP1(vir) IC50” value in assay [2] turned out to be 4120.

Consider `COc1cc(-c2cnc(O[C@H]3C[C@@H](C(=O)O)N(c4nc(C(F)F)nc5c4oc4ccccc45)C3)c(N3CCOC4(COC4)[C@@H]3C)c2)c(F)cn1` [Example 3.32], for which the pIC50 on cGAS was 8.05; in assay [1] (setting [4]), 8.70; in assay [3] it was 7.77. In addition, in assay [2] (setting [5]), the IC50 is 12900 nM. For the same molecule, the “Ratio THP1(cGAMP) IC50 / THP1(vir) IC50” value in assay [2] was 5194.

Take `COc1c(-c2cnc(O[C@H]3C[C@@H](C(=O)O)N(c4nc(C(F)F)nc5c4oc4ccccc45)C3)c(N3CCOC4(COC4)[C@@H]3C)c2)ccnc1N(C)C` [Example 4.02]: the pIC50 against cGAS was 7.92; in assay [1] (setting [4]), 7.77; in assay [3] it was 7.38. For the same molecule, in assay [2] (setting [5]), the half-inhibitory concentration (IC50) was 12600 nM. In addition, in assay [2], the “Ratio THP1(cGAMP) IC50 / THP1(vir) IC50” value is given as 735.

As to `CNc1nccc(-c2cnc(O[C@H]3C[C@@H](C(=O)O)N(c4nc(C(F)F)nc5c4oc4ccccc45)C3)c(N3CCOC4(COC4)[C@@H]3C)c2)c1OC` [Example 4.03], the pIC50 was 8.10 at cGAS, 6.70 in assay [1] (setting [4]) and 7.11 in assay [3]. For the same molecule, in assay [2] (setting [5]), the IC50 was 7870 nM. Moreover, in assay [2], the “Ratio THP1(cGAMP) IC50 / THP1(vir) IC50” value is given as 40.

On to `C[C@@H]1N(c2cccnc2O[C@H]2C[C@@H](C(=O)O)N(c3nc(C(F)F)nc4c3oc3ccccc34)C2)CCOC12COC2` [Example 4.04, (2S,4S)-4-({3-[(9S)-9-methyl-2,5-dioxa-8-azaspiro[3.5]nonan-8-y]-pyridin-2-yl}-oxy)1-[4-(difluoro-methyl)-8-oxa-3,5-diazatricyclo[7.4.0.0^2.7]trideca-1(13),2,4,6,9,11-hexaen-6-yl]pyrrolidine-2-carboxylic acid], for which the pIC50 is 8.70 on cGAS; 6.41 in assay [1] (read-out: THP1(vir) IC50, inhibition of IFN induction in virus-stimulated THP1 cells); 6.41 in assay [1] (read-out: THP1(vir) IC50, virus-stimulated THP1 cells, IFN induction); 7.11 in assay [3]. Further, the IC50 in assay [2] (setting [5]) was above 16600 nM; in assay [2] (cGAMP-stimulated THP1 cells, counter assay) it was above 16600 nM. For the same molecule, the “Ratio THP1(cGAMP) IC50 / THP1(vir) IC50” value in assay [2] is given as above 43.

Regarding `C[C@@H]1N(c2cc(-c3ccnc([S+](C)[O-])c3)cnc2O[C@H]2C[C@@H](C(=O)O)N(c3nc(C(F)F)nc4c3oc3ccccc34)C2)CCOC12COC2` (stereo partly drawn) [Example 5.01, (2S,4S)-1-[4-(Difluoromethyl)-8-oxa-3,5-diazatricyclo[7.4.0.0^2,7]trideca-1(9),2(7),3,5,10,12-hexaen-6-yl]-4-({2′-methanesulfinyl-5-[(95)-9-methyl-2,5-dioxa-8-azaspiro[3.5]nonan-8-yl]-[3,4′-bipyridin]-6-yl}oxy)pyrrolidine-2-carboxylic acid], the pIC50 against cGAS was 8.30; in assay [1] (setting [4]), 6.24; in assay [3] it was 6.62. The IC50 in assay [2] (setting [5]) is 22100 nM. Moreover, in assay [2], the “Ratio THP1(cGAMP) IC50 / THP1(vir) IC50” value worked out at 38.

As for `CC#Cc1cnc(O[C@H]2C[C@@H](C(=O)O)N(c3nc(C(F)(F)F)nc4c3oc3ccccc34)C2)c(N2CCOC3(COC3)[C@@H]2C)c1` [Example 6.01], the pIC50 is 8.00 at cGAS, above 8.30 in assay [1] (setting [4]) and 7.60 in assay [3]. For the same molecule, the IC50 in assay [2] (setting [5]) was 20500 nM. Further, the “Ratio THP1(cGAMP) IC50 / THP1(vir) IC50” value in assay [2] came to 3801.

With `CC#Cc1cnc(O[C@H]2C[C@@H](C(=O)O)N(c3nc(C(F)F)nc4c3oc3ccccc34)C2)c(N2CCOC3(COC3)[C@@H]2C)c1` [Example 6.02], the pIC50 at cGAS was 8.22; in assay [1] (setting [4]), above 8.30; in assay [3], 8.10. Also, the 50% inhibitory concentration (IC50) in assay [2] (setting [5]) is above 16000 nM. Besides, the “Ratio THP1(cGAMP) IC50 / THP1(vir) IC50” value in assay [2] is above 3000.

`CC#Cc1cnc(O[C@H]2C[C@@H](C(=O)O)N(c3nc(C(F)(F)F)nc4c3oc3ccccc34)C2)c(N2CCOC3(CC3)[C@@H]2C)c1` [Example 6.03]: the pIC50 was 8.15 against cGAS, 8.30 in assay [1] (setting [4]) and 7.02 in assay [3]. Also, the IC50 in assay [2] (setting [5]) is 10900 nM. For the same molecule, in assay [2], the “Ratio THP1(cGAMP) IC50 / THP1(vir) IC50” value is given as 2273.

Turning to `COc1csc(-c2cnc(O[C@H]3C[C@@H](C(=O)O)N(c4nc(C(F)(F)F)nc5c4oc4ccccc45)C3)c(N3CCOC4(COC4)[C@@H]3C)c2)n1` [Example 7.02], the pIC50 is 7.85 at cGAS, 9.00 in assay [1] (setting [4]) and 7.89 in assay [3]. For the same molecule, in assay [2] (setting [5]), the IC50 is 8320 nM. In assay [2], the “Ratio THP1(cGAMP) IC50 / THP1(vir) IC50” value is 7533.
